Entries after “also recorded” stand apart in the source; their conditions may differ.
Columns and labels:
[1] = system: arthrodial cartilage of the knee joint; assay: Rabbit knee cartilage defect model: observation by bare eyes and histomorphometry; format: in vivo, New Zealand white rabbits
Description: (§1) Fifteen (15) healthy adult New Zealand white rabbits were randomly divided into three (3) groups: a normal control group (Group A), a model control group (Group B) and a test group subject to intra-articular injection of a test peptide (Group C), with five (5) rabbits included in each of the groups. Fasting was conducted within four hours before surgical operations. Ketamine (10 mg/kg) and atropine (0.2 mg/kg) were injected in the muscle of each rabbit. After anesthesia took effect, each rabbit was confined to an operating table. An 8 cm-long longitudinal scission was made in the back of each knee before the skin was lifted. From the back of the knee, the articular capsule and synovial were opened. Then, the knee was bent for 90° to expose the cartilage at a lower end of the femur. Two cylindrical cutouts of 3 mm in diameter and 3 mm in depth were made. Coagulation was removed from each of the cutouts. The joint cavity was washed with a sterile saline solution. Stitches were made for each section. After the surgical operation, injection of penicillin was conducted against infection for a week. After five (5) days, each rabbit was able to eat and stand normally.
(§2) Two (2) weeks after the surgical operation, the rabbits of Group A and Group B were not treated, whereas the rabbits of Group C were subject to intra-articular injection of 250 ppm/kg of tetrapeptide-3 GEKG once for every seven (7) days, and the injection lasted for twelve (12) weeks. Articular injection of 0.5 ml of saline was executed, and then 0.2 ml of synovial liquid was collected. The articular capsule was cut and opened, synovial was removed, and an entire tibial joint was taken. Arthropathy in arthrodial cartilage was observed by bare eyes and also via surgical lens. Slices were taken, dyed by hematoxylin and eosin stain (HE Stain) and toluidine blue, and then observed in an optical microscope.

[2] = system: synovial liquid; assay: Rabbit knee cartilage defect model: biochemical indicators (NO, SOD, MDA) in synovial liquid; format: in vivo, New Zealand white rabbits
Source text: As used in the present invention, all of the methods for measuring SOD, NO and MDA in synovial liquid and collagen and proteoglycan in extracellular matrix of cartilage have been known and conventionally used in the art.
as §1, §2

[3] = system: cartilage cells of the growth plate; assay: Cultivated cartilage cells: DNA content, collagen and proteoglycan production; format: cell-based, rabbits; details: 250 ppm
Description: Firstly, cartilage cells of the growth plate of the same rabbits were taken and continuously cultivated. The cultivated cells were divided into three groups. In Group I, only 250 ppm of tetrapeptide-3 GEKG was added. In Group II, only 100 ng/ml of collagen was added. In Group III, 250 ppm of tetrapeptide-3 GEKG and 100 ng/ml of collagen were added. A negative control group was also used. After new tissues of cartilage grew at a lower portion of a centrifuge tube, the new tissues were transferred to a 24-well plate for continuing cultivation, wherein the culture medium was replaced for every 2 days. During the cultivation, samples were collected after three (3), seven (7) and fourteen (14) days, and then were analyzed.
For the histological and histochemical measurements, samples were collected, and HE dying and immunochemical measurement (S-P method) were executed.
The content of DNA in the cells of cartilage was determined by the method of Hoechst 33258.
Extracellular matrix of cartilage primarily comprises collagen and proteoglycan composed of glycosaminoglycan and core protein, in addition to water. The content of the matrix and its status of the metabolism were quantitatively analyzed by determining a level of the collagen and proteoglycan in the new tissues of cartilage.
The synthesis of the collagen of the cartilage is measured by the hydroxyproline method. Because the content of hydroxyproline in the collagen was substantially constant (about 10% by weight), an amount of hydroxyproline could be used to analyze the amount of the collagen of the cartilage by using a commercial kit including the hydroxyproline reagent. The content of the collagen in the samples was calculated.

[4] = Group C vs model control group B
[5] = Group C: intra-articular injection of 250 ppm/kg once every 7 days for 12 weeks

## tetrapeptide-3 GEKG
[1]; [4]
  Morphosis of the arthrodial cartilage compared with Group B: significant improvement
[1]; Group C, HE and toluidine blue stain, optical microscope
  Histomorphometric observation of repaired tissues: the repaired tissues were not substantially different from the normal tissues of the knee joint; also recorded: considerably repaired the damaged tissues of cartilage
[1]; Group C, after 12 weeks of intra-articular injection, 250 ppm/kg
  Repair of knee joint injuries observed by bare eyes: the injuries were completely repaired
[2]; [4]
  MDA level in synovial liquid (change in words): considerably reduced
  SOD level in synovial liquid (change in words): considerably increased
[2]; [5]
  MDA level in synovial liquid: 13.12 ± 2.28 c/mol · L^−1
  NO level in synovial liquid: 20.76 ± 2.88 c/mol · L^−1
  SOD level in synovial liquid: 6.60 ± 1.37 c/mol · L^−1
[3]; samples after 3, 7 and 14 days
  Hyperosteogeny of the cells of the cartilage: considerable hyperosteogeny
[3]; vs control group, FIG. 1
  Content of DNA of the cells of the cartilage (Hoechst 33258): statistically different from that of the control group
[3]; vs control group, FIG. 2
  Production of collagen of extracellular matrix of cartilage (hydroxyproline method): considerably increased
[3]; vs control group, FIG. 3
  Production of proteoglycan of extracellular matrix of cartilage: considerably increased

— patent US20180200323A1, “USE OF TETRAPEPTIDE -3 GEKG OR PENTAPEPTIDE -3 GEKGF FOR TREATING DEGENERATIVE JOINT DISEASE” (priority 2017, published 2018)
